Patent publication US10221144B2, “Antibacterial compounds having broad spectrum of activity” (priority 2014, dated 2019)
pIC50: −log10 of the molar value. Read-outs that look alike come from different tables or passages of the source.

Key:
Type in all cases: biochemical
[1] = molecular target: T1, S. aureus Topoisomerase IV (Staphylococcus aureus, UniProt P0C1S7+P0C1U9); test: Topoisomerase IV decatenation assay (S. aureus)
T1 construct: purchased Inspiralis, UK
Experimental: (§1) The above compounds were tested for the inhibition of the enzyme DNA gyrase in a gyrase supercoiling assay and for the inhibition of the enzyme topoisomerase IV in a decatenation assay, in both Gram positive and Gram negative bacteria, according to the following methods.
(§2) Both the assays were carried out according to a set-up method modified from the article to Blanche F, et al. “Differential Behaviors of Staphylococcus aureus and Escherichia coli Type II DNA Topoisomerases”, Antimicrob. Agents Chemother., 1996, Vol. 40, No. 12 p. 2714-2720.
(§3) The compounds were screened at single concentration (200, 100 or 50 μM), in duplicate.
(§4) S. aureus and E. coli Topoisomerase IV decatenation kits (Inspiralis, UK) were used. A master mix with a total volume sufficient for the number of reactions to perform was prepared with the following reagents: 5× assay buffer (50 mM HEPES-KOH (pH 7.6), 100 mM potassium glutamate, 10 mM magnesium acetate, 10 mM DTT, 1 mM ATP, 50 μg/ml albumin), kDNA substrate (200 ng/reaction), RNase-DNase free water. Aliquots of this mix were dispensed in each tube, then 10× compound stock solutions or vehicle control (DMSO), were added in each reaction tube.
(§5) Reaction was started with Topoisomerase IV enzyme (0.5 U/reaction) addition.
(§6) A sample added with an equal volume of dilution buffer was used as negative control (without enzyme).
(§7) The reaction tubes were gentle vortexed and incubated 30 minutes at 37° C. Each reaction was stopped by adding 30 μl of Stop Buffer and 30 μl of chloroform/isoamyl alcohol (24/1), briefly vortexed for 5-10 seconds and centrifuged at 20000×g for 2 minutes. Samples taken from the upper phase were loaded into 1% agarose gel and subjected to electrophoresis for 1 hour at 80V constant voltage in TAE (40 mM Tris-acetate, 2 mM EDTA).
(§8) Data acquisition and analysis. Due to the high molecular mass, kDNA could not enter an agarose gel under normal electrophoresis conditions, but remained in the wells. In the presence of Topo IV topoisomerase mini-circles (2.5 Kb) were released from kDNA by decatenation and were quickly and easily resolved in the gel at relatively high voltages.
(§9) Bands were visualized by ethidium bromide staining (dil 1:20000) for 30 minutes followed by destaining in distilled water for 10 minutes.
(§10) For single concentration screening assay, in order to evaluate the compounds activity on the enzymes, the bands of decatenated DNAs in the gel were photographed by a digital imaging system ImageQuant LAS 4000 (GE Healthcare) according to manufacturer's instructions.
(§11) The fluorescent intensity of each band was analyzed by ImageQuant TL software and it was expressed as volume (volume of the uncalibrated quantity of material in the image feature after subtraction of the background intensity by using rolling ball method).
(§12) Each band intensity was compared, as percentage, to vehicle sample band intensity, which served as positive control, on the same gel.
(§13) Inhibitory activity was expressed as percent of inhibition versus the positive control.
(§14) The supercoiled or decatenated DNA bands obtained as described in Example 1 were analysed as follows.
(§15) Bands were analyzed by gel documentation equipment (Syngene, Cambridge, UK) and quantitated using Syngene Gene Tools software. Raw gel data (fluorescent band volumes) collected from Syngene, GeneTools gel analysis software were converted to a percentage of the 100% control (the fully supercoiled or decatenated DNA band). […] The IC50 data were calculated by using the global curve fit non-linear regression tool by selecting the Single, 2 Parameter fit function from the Exponential Decay equation category.

E. coli DNA gyrase = molecular target: T2, E. coli DNA gyrase (Escherichia coli, UniProt P0AES4+P0AES6); test: DNA gyrase supercoiling assay (E. coli)
T2 construct: purchased Inspiralis, UK
Experimental: as §1, §2, §3
(§16) Reagents from S. aureus and E. coli Gyrase Supercoiling Assay kits (Inspiralis, UK) were used. A master mix with a total volume sufficient for the number of reactions to perform was prepared with the following reagents: 5× assay buffer, relaxed pBR322 substrate (0.5 μg/reaction), RNase-DNase free water. Aliquotes of this mix were dispensed in each tube, then 10× compound stock solutions or vehicle control (DMSO), were added to each reaction tube.
(§17) Reaction was started with E. Coli (2 U/reaction) or S. aureus (1 U/reaction) gyrase enzyme addition.
as §6
(§18) The reaction tubes were gentle vortexed and incubated 30 minutes at 37° C. Each reaction was stopped by adding 30 μl of Stop Buffer and 30 μl chloroform/isoamyl alcohol (24/1), briefly vortexed for 5-10 seconds and centrifuged at 20000×g for 2 minutes. Samples were loaded onto 1% agarose gel and subjected to electrophoresis for 1 hour at 80V constant voltage in TAE (40 mM Tris-acetate, 2 mM EDTA).
(§19) Data acquisition and analysis. Treatment of relaxed pBR322 with DNA gyrase converted the relaxed topoisomers (DNAs of different linking number) to the supercoiled form of the plasmid, which migrates faster on an agarose gel. An upper band might also be visible, which consists of open-circular (nicked) DNA which is present in the relaxed substrate but co-migrates with some of the relaxed topoisomers.
(§20) Bands were visualized by ethidium bromide staining (dilution 1:20000) for 30 minutes followed by destaining in distilled water for 10 minutes.
(§21) In order to evaluate the compounds activity on the enzyme, the bands of supercoiled DNAs in the gel were photographed by a digital imaging system ImageQuant LAS 4000 (GE Healthcare) according to manufacturer's instructions.
as §11, §12, §13, §14, §15

E. coli Topoisomerase IV = molecular target: T3, E. coli Topoisomerase IV (Escherichia coli, UniProt P0AFI2+P20083); test: Topoisomerase IV decatenation assay (E. coli)
T3 construct: purchased Inspiralis, UK
Experimental: as §1, §2, §3, §4, §5, §6, §7, §8, §9, §10, §11, §12, §13, §14, §15

S. aureus DNA gyrase = molecular target: T4, S. aureus DNA gyrase (Staphylococcus aureus, UniProt P0A0K8+P20831); test: DNA gyrase supercoiling assay (S. aureus)
T4 construct: purchased Inspiralis, UK
Experimental: as §1, §2, §3, §16, §17, §6, §18, §19, §20, §21, §11, §12, §13, §14, §15

[2] = S. aureus, conc. 50 μM, n/a = not active
[3] = S. aureus, concentration-response curve, eight half-log concentrations 0.1 to 300 μM, read-out: IC50 Topo IV
[4] = E. coli, conc. 50 μM, n/a = not active
[5] = E. coli, concentration-response curve, eight half-log concentrations 0.1 to 300 μM, read-out: IC50 DNA gyrase
[6] = E. coli, concentration-response curve, eight half-log concentrations 0.1 to 300 μM, read-out: IC50 Topo IV
[7] = S. aureus, concentration-response curve, eight half-log concentrations 0.1 to 300 μM, read-out: IC50 DNA gyrase
[8] = S. aureus, conc. 100 μM, n/a = not active
[9] = E. coli, conc. 100 μM, n/a = not active
[10] = S. aureus, conc. 100 μM, n/a = not active, read-out: % inhibition Topo IV
[11] = E. coli, conc. 100 μM, n/a = not active, read-out: % inhibition Topo IV
[12] = E. coli, conc. 50 μM, n/a = not active, read-out: % inhibition Topo IV
[13] = S. aureus, conc. 50 μM, n/a = not active, read-out: % inhibition Topo IV

T1 sequence (P0C1S7 whole entry): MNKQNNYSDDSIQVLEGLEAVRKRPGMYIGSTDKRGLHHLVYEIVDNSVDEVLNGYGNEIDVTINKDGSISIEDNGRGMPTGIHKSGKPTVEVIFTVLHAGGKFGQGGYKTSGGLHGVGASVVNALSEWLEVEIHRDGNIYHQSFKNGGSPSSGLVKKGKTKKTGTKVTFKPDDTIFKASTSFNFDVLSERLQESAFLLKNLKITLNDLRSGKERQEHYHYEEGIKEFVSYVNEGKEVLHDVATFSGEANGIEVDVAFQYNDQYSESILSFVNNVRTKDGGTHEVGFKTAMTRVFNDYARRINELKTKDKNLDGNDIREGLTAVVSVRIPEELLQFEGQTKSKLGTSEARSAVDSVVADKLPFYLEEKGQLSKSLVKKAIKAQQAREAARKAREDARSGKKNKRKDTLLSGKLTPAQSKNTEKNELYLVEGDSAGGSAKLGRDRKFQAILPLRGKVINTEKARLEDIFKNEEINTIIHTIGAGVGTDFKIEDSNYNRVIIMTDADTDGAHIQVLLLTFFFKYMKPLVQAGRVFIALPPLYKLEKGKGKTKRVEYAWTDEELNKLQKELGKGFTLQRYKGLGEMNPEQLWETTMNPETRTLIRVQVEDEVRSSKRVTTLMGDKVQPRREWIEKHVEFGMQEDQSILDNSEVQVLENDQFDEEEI
T1 sequence (P0C1U9 whole entry): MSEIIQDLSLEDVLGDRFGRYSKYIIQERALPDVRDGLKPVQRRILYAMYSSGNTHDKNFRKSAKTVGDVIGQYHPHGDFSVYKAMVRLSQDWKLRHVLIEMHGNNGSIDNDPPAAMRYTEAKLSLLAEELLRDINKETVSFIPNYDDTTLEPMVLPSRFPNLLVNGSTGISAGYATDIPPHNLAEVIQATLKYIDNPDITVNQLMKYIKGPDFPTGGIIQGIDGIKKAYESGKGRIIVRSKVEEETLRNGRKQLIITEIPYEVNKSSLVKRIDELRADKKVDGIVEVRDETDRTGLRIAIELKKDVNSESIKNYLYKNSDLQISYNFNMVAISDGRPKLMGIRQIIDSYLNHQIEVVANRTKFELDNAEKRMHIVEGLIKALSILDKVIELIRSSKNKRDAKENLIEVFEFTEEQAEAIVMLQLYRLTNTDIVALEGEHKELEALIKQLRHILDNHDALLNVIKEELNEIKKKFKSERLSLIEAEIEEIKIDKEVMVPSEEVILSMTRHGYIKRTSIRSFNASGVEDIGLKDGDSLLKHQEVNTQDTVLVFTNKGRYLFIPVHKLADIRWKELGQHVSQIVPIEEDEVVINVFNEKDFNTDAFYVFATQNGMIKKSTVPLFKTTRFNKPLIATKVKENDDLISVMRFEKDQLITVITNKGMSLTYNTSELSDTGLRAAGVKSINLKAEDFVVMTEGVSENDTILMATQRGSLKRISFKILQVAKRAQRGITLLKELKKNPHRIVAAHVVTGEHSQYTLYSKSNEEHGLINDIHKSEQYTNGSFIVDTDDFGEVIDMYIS
T4 sequence (P0A0K8 whole entry): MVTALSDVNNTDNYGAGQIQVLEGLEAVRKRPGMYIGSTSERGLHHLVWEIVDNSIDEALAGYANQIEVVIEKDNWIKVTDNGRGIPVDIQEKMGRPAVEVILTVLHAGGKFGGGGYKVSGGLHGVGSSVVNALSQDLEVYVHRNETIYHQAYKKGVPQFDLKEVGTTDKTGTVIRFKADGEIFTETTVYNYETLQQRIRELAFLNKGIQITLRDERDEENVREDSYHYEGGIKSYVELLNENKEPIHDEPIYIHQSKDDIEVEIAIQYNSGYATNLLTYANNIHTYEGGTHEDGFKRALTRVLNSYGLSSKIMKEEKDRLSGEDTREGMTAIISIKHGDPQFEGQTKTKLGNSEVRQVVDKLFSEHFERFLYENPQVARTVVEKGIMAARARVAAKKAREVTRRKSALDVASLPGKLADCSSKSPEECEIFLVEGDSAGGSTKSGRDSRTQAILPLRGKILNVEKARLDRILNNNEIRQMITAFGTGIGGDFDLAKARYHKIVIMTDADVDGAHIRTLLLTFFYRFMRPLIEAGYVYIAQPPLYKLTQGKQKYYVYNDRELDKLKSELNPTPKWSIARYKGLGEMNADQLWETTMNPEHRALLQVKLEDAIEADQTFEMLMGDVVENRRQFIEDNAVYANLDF
T4 sequence (P20831 whole entry): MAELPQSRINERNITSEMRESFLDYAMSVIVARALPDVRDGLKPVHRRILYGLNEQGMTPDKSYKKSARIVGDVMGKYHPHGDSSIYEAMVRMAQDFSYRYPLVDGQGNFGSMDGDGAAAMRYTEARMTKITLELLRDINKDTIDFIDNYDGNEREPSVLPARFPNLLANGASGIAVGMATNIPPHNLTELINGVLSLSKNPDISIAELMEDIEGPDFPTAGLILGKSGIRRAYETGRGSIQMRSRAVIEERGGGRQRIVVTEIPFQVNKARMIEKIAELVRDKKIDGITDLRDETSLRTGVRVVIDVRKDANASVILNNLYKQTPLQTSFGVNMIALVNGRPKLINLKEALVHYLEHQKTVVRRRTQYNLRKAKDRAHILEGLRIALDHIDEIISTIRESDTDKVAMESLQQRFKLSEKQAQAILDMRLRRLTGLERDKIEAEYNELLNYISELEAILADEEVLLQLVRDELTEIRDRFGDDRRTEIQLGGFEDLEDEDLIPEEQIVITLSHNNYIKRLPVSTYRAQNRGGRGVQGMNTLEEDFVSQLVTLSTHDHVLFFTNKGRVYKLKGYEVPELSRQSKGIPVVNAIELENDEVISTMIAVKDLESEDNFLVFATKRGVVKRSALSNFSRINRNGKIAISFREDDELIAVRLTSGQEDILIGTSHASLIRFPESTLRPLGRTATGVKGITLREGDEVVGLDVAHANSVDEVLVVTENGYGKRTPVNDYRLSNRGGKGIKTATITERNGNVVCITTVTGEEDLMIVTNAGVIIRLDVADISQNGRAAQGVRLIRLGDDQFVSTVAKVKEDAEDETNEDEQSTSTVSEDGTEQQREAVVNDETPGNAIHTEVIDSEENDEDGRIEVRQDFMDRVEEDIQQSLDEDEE
T2 sequence (P0AES4 whole entry, one chain of several): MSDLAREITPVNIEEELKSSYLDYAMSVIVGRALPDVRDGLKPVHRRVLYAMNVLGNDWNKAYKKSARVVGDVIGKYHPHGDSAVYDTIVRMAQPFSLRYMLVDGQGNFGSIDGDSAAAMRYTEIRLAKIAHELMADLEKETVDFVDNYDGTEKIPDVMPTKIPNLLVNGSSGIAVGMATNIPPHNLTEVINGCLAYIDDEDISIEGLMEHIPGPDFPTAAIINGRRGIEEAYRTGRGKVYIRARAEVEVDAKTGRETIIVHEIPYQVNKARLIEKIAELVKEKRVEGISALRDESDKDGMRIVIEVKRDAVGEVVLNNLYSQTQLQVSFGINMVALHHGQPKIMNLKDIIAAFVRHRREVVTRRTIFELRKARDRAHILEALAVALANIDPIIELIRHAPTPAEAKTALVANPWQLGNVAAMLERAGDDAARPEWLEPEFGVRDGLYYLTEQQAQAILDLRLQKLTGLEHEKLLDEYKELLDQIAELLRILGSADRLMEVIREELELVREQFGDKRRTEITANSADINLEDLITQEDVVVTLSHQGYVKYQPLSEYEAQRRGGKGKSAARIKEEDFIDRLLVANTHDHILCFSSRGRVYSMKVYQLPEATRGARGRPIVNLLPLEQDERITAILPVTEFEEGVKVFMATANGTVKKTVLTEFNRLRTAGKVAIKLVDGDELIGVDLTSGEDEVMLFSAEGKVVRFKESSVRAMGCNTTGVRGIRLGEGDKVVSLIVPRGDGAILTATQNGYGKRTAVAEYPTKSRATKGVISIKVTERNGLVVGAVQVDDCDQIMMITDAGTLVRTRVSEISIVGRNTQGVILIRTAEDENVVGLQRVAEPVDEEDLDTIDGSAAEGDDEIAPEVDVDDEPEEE

Row | Compound | pIC50 (E. coli DNA gyrase) | pIC50 (E. coli Topoisomerase IV) | pIC50 (S. aureus DNA gyrase) | inhibition at 50 µM (E. coli DNA gyrase; [4]) [%] | inhibition at 50 µM (E. coli Topoisomerase IV; [12]) [%] | inhibition at 50 µM (S. aureus DNA gyrase; [2]) [%] | also measured
1 | 7-methoxy-1-chloroisoquinoline [Compound 88] | – | – | – | – | – | – | % inhibition Topo IV [1, 2]: 88%; pIC50 [1, 3]: 5.17; % inhibition DNA gyrase (E. coli DNA gyrase; [4]): 100%; pIC50 (E. coli DNA gyrase; [5]): 5.49; % inhibition Topo IV (E. coli Topoisomerase IV; [4]): 100%; pIC50 (E. coli Topoisomerase IV; [6]): 6.05; % inhibition DNA gyrase (S. aureus DNA gyrase; [2]): 100%; pIC50 (S. aureus DNA gyrase; [7]): 5.96
2 | 7-methyl-1-chloroisoquinoline [Compound 72] | – | – | – | – | – | – | % inhibition Topo IV [1, 8]: 76%; pIC50 [1, 3]: 4.28; % inhibition DNA gyrase (E. coli DNA gyrase; [9]): 98%; pIC50 (E. coli DNA gyrase; [5]): 5.59; % inhibition Topo IV (E. coli Topoisomerase IV; [9]): 91%; pIC50 (E. coli Topoisomerase IV; [6]): 5.42; % inhibition DNA gyrase (S. aureus DNA gyrase; [8]): 97%; pIC50 (S. aureus DNA gyrase; [7]): 5.02
3 | O=c1cc(NCC(O)CN2CCN(c3nccc4ccccc34)CC2)c2ccccc2o1 (racemic) [Compound 59, 4-({2-hydroxy-3-[4-(isoquinolin-1-yl)piperazin-1-yl]propyl}amino)-2H-chromen-2-one] | 5.92 | 4.79 | 5.36 | – | – | – | pIC50 [1]: 4.73; inhibition at 100 µM [1, 10]: 77%; inhibition at 100 µM (E. coli DNA gyrase; [9]): 81%; inhibition at 100 µM (E. coli Topoisomerase IV; [11]): 100%; inhibition at 100 µM (S. aureus DNA gyrase; [8]): 90%
4 | CCOC(=O)C1CN(c2nccc3ccc(F)cc23)CCC1NCc1cc2c(=O)oc3ccccc3c2[nH]1 (racemic) [Compound 184, ethyl 1-(7-fluoroisoquinolin-1-yl)-4-{[(4-oxo-1,4-dihydro[1]benzopyrano[4,3-b]pyrrol-2-yl)methyl]amino}piperidine-3-carboxylate] | – | – | – | 68 | 58 | 83 | inhibition at 50 µM ([1]; read-out: % inhibition Topo IV): 69%
5 | O=c1cc(NCCCN2CCN(c3nccc4ccccc34)CC2)c2ccccc2o1 [Compound 44, 4-({3-[4-(isoquinolin-1-yl)piperazin-1-yl]propyl}amino)-2H-chromen-2-one] | 6.30 | 5.00 | 4.85 | – | – | – | pIC50 [1]: 4.05; inhibition at 200 µM ([1]; S. aureus, conc. 200 μM, n/a = not active, read-out: % inhibition Topo IV): 65%; inhibition at 200 µM (E. coli DNA gyrase; E. coli, conc. 200 μM, n/a = not active): 100%; inhibition at 200 µM (E. coli Topoisomerase IV; E. coli, conc. 200 μM, n/a = not active, read-out: % inhibition Topo IV): 100%; inhibition at 200 µM (S. aureus DNA gyrase; S. aureus, conc. 200 μM, n/a = not active): 100%
6 | O=c1cc(NCCCN2CCN(c3nccc4ccc(F)cc34)CC2)c2ccccc2o1 [Compound 67, 4-({3-[4-(7-fluoroisoquinolin-1-yl)piperazin-1-yl]propyl}amino)chromen-2-one] | 6.10 | 5.77 | 5.55 | – | – | – | pIC50 [1]: 4.93; inhibition at 100 µM [1, 10]: 100%; inhibition at 100 µM (E. coli DNA gyrase; [9]): 89%; inhibition at 100 µM (E. coli Topoisomerase IV; [11]): 100%; inhibition at 100 µM (S. aureus DNA gyrase; [8]): 97%
7 | O=c1cc(NCCNC2CCN(c3nccc4ccc(F)cc34)CC2)c2cc(F)ccc2o1 [Compound 131, 6-fluoro-4-[(2-{[1-(7-fluoroisoquinolin-1-yl)piperidin-4-yl]amino}ethyl)amino]-2H-chromen-2-one] | – | – | – | 100 | 100 | 81 | inhibition at 50 µM [1, 13]: 78%
8 | O=c1oc2ccccc2c2[nH]c(CCN3CCN(c4nccc5ccc(F)cc45)CC3)nc12 [Compound 143, 2-{2-[4-(7-fluoroisoquinolin-1-yl)piperazin-1-yl]ethyl}chromeno[3,4-d]imidazol-4(1H)-one] | – | – | – | 96 | 91 | 89 | –
9 | O=c1oc2ccccc2c2[nH]c(CNC3CCN(c4nccc5ccc(F)cc45)CC3)cc12 [Compound 145, 2-({[1-(7-fluoroisoquinolin-1-yl)piperidin-4-yl]amino}methyl)[1]benzopyrano[4,3-b]pyrrol-4(1H)-one] | – | – | – | 99 | 100 | 97 | –
10 | O=c1oc2ccccc2c2[nH]c(CNC3CCN(c4nccc5ccc(F)cc45)CC3)nc12 [Compound 146, 2-({[1-(7-fluoroisoquinolin-1-yl)piperidin-4-yl]amino}methyl)[1]benzopyrano[3,4-d]imidazol-4(1H)-one] | – | – | – | 91 | 100 | 93 | –
11 | O=c1oc2ccccc2c2[nH]c(CCCN3CCN(c4nccc5ccc(F)cc45)CC3)nc12 [Compound 147, 2-{3-[4-(7-fluoroisoquinolin-1-yl)piperazin-1-yl]propyl}[1]benzopyrano[3,4-d]imidazol-4(1H)-one] | – | – | – | 84 | 74 | 85 | –
12 | O=c1nc(NCC(O)CN2CCN(c3nccc4ccc(F)cc34)CC2)c2cc(F)ccc2o1 (stereo not drawn) [Compound 148, 6-fluoro-4-({3-[4-(7-fluoroisoquinolin-1-yl)piperazin-1-yl]-2-hydroxypropyl}amino)-2H-1,3-benzoxazin-2-one] | 6.38 | 6.92 | 7.62 | 96 | 100 | 100 | inhibition at 50 µM [1, 13]: 100%; pIC50 [1, 3]: 7.30
13 | O=c1nc(NCC(O)CN2CCN(c3nc(F)cc4ccc(F)cc34)CC2)c2cc(F)ccc2o1 (stereo not drawn) [Compound 149, 4-({3-[4-(3,7-difluoroisoquinolin-1-yl)piperazin-1-yl]-2-hydroxypropyl}amino)-6-fluoro-2H-1,3-benzoxazin-2-one] | 7.00 | 6.85 | 7.74 | 90 | 90 | 100 | inhibition at 50 µM [1, 13]: 100%; pIC50 [1, 3]: 7.40
14 | Fc1ccc2ccnc(N3CCN(CCNCc4cc5c(cn4)OCCC5)CC3)c2c1 [Compound 150, N-[(3,4-dihydro-2H-pyrano[2,3-c]pyridin-6-yl)methyl]-2-[4-(7-fluoroisoquinolin-1-yl)piperazin-1-yl]ethan-1-amine] | 4.77 | 5.37 | 5.99 | 50 | 50 | 100 | pIC50 [1]: 5.23; inhibition at 50 µM [1, 13]: 50%
